Structures are written as SMILES. Active and inactive are the calls of the source. The rule behind the calls is not given here.

From PubChem BioAssay AID1896 (NMMLSC, 2009) come the findings set out here.

This experiment addresses Mitogen-activated protein kinase kinase kinase 3 (Homo sapiens) (UniProt Q99759). Description: inhibitors of MEK5 binding to MEKK3, dose response, biochemical, bead multiplex flow cytometry, wildtype (AID 1896). As to conditions: bead-based multiplex flow cytometry, MEK5-MEKK3 PB1 binding; for Ki: measured here: Ki from EC50. A general note: Flow cytometry measures light scatter and fluorescence of single cells or particles in a stream.

Sequence of Mitogen-activated protein kinase kinase kinase 3 (Homo sapiens) (Q99759 whole entry, looked up): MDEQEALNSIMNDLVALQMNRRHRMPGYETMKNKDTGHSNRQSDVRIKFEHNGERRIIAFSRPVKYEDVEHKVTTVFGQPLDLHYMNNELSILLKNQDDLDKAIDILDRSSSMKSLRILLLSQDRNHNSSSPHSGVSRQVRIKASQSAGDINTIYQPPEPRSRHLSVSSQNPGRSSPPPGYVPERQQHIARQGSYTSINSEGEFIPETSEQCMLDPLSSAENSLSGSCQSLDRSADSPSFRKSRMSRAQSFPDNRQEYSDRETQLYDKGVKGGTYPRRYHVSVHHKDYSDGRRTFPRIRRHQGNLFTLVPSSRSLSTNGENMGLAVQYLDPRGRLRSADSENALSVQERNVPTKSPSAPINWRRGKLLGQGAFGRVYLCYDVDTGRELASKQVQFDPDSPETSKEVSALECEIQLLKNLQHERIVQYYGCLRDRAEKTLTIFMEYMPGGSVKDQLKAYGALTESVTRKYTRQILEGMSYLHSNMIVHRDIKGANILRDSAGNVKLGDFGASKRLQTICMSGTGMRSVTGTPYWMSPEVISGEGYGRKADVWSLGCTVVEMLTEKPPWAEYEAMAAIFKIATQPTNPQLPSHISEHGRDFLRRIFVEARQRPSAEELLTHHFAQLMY

By EC50 is commonly meant the concentration at which the effect is half-maximal. Turning to `COc1ccc(C2NCCc3c2[nH]c2ccccc32)cc1CN1CCc2cc(OC)c(OC)cc2C1C` (centres undefined), the EC50 was > 30 µM (inactive).
For `COc1ccc(-c2csc(N(CCCN(C)C)C(=O)c3ccccc3Cl)n2)cc1`, the EC50 was > 30 µM (inactive).
In the case of `CCN1/C(=C/C=C/C=C/C=C/c2sc3ccccc3[n+]2CC)Sc2ccccc21`, the EC50 was > 30 µM (inactive).
`C=CC#CC[N+]1(CC#Cc2ccccc2)CCOCC1`: the EC50 was > 30 µM (inactive).
Usually Ki stands for the equilibrium dissociation constant of an inhibitor or competing ligand from its target. A lower Ki goes with a stronger hold on the target. With `CCN1/C(=C/c2ccc3cc(C)cc(C)c3[n+]2CC)Sc2cc(C)ccc21`, the 50% effective concentration (EC50) is 10.6 µM and the inhibition constant Ki was 9.04 µM.
As for `Nc1ccc2nc(-c3ccc(-c4nc5ccc(N)cc5[nH]4)cc3)[nH]c2c1`, the EC50 was > 30 µM (inactive).
As for `Cc1nn2c(N)csc2nc1=O`, the 50% effective concentration (EC50) was 4.14 µM and the Ki was 3.54 µM.
The like results for `Cc1cc2cc(CNC(=O)NC3CCCCC3)ccc2[nH]1` were, in that order, 3.98 µM and 3.41 µM.
Regarding `COc1ccc2nc3cc(Cl)ccc3c(Nc3cc(C(C)C)c(O)cc3C)c2c1`, the EC50 is > 30 µM (inactive).
Same read-out and setting: with `CCc1ccc(Nc2n[n+](-c3ccccc3)c(-c3ccc(OC)c(Br)c3)s2)cc1` the figure was > 30 µM (inactive); with `CC(C)N=c1cc2n(-c3ccc(Cl)cc3)c3ccccc3nc-2cc1Nc1ccc(Cl)cc1`, > 30 µM (inactive).
The same measure, in the same setting: with `FC(F)(F)c1cccc(NC(=S)N(CCCN2CCCC2)Cc2cccn2Cc2ccc(Cl)cc2)c1` the figure was > 30 µM (inactive).
Consider `CCN1/C(=C/C(C)=C/c2sc3ccccc3[n+]2CC)Sc2ccccc21`, for which the EC50 is 1.01 µM and the Ki was 0.86 µM.
Take `C#CCOCCOCCOCCNc1nc(N2CCN(C(=O)[C@H](CCCCN)n3cc([C@@H](N)CC(C)C)nn3)CC2)nc(N2CCN(C(=O)[C@H](Cc3cc4ccccc4[nH]3)n3cc([C@@H](N)Cc4ccc(O)cc4)nn3)CC2)n1`: the EC50 was > 30 µM (inactive).
Regarding `CC(=O)Nc1ccc(OCC(O)Cn2c3ccccc3c3ccccc32)cc1` (centres undefined), the EC50 is > 30 µM (inactive).
On to `Cc1c2cc(O)c(=O)cc-2oc2cc(O)c(O)cc12`, for which the EC50 was > 30 µM (inactive).
`N=C(N)SCc1cn(-c2ccccc2)nc1-c1ccc(Br)cc1`: the EC50 is > 30 µM (inactive).
`CCCCCCCCCCCCCCCC[n+]1cccc2ccccc21`: the EC50 is > 30 µM (inactive).
Take `CCN(CC)CCOc1ccc2c(c1)C(=NNC(=O)c1ccccn1)c1cc(OCCN(CC)CC)ccc1-2`: the EC50 is > 30 µM (inactive).
For the compound `C#CCOCCOCCOCCNc1nc(N2CCN(C(=O)C(Cc3cc4ccccc4[nH]3)n3cc(C(N)C(C)CC)nn3)CC2)nc(N2CCN(C(=O)C(Cc3cc4ccccc4[nH]3)n3cc(C(N)C(C)CC)nn3)CC2)n1` (centres undefined), the EC50 was > 30 µM (inactive).
Still for that read-out and setting: in the case of `C#CCOCCOCCOCCNc1nc(N2CCN(C(=O)[C@H]([C@@H](C)CC)n3cc([C@@H](N)CC(C)C)nn3)CC2)nc(N2CCN(C(=O)[C@H](Cc3cc4ccccc4[nH]3)n3cc([C@@H](N)CC(C)C)nn3)CC2)n1` it was > 30 µM (inactive); in that of `CCCCN(CC)CCNC(=O)c1cc2c(-c3ccc(Cl)cc3)nn(C)c2s1`, > 30 µM (inactive); in that of `COc1ccc(Cn2c(SCc3ccccc3C)nc3cc(OC)c(OC)cc3c2=N)cc1`, > 30 µM (inactive).
The same measure, in the same setting: in the case of `Cc1ccc(-c2csc(NC(=O)C[n+]3cc(-c4ccc(C)cc4)n4c3CCC4)n2)cc1` it was > 30 µM (inactive).
As for `CCN1/C(=C/c2ccc3cc(C)ccc3[n+]2C)Sc2ccc3sccc3c21`, the EC50 is > 30 µM (inactive).
For the compound `CC(C)n1cc(CN2CCC(C(=O)Nc3cccc(-c4cccc(Cl)c4)c3)CC2)cn1`, the EC50 is > 30 µM (inactive).
With `C#CCOCCOCCOCCNc1nc(N2CCN(C(=O)C(Cc3ccc(O)cc3)n3cc(C(N)CC(C)C)nn3)CC2)nc(N2CCN(C(=O)C(Cc3cc4ccccc4[nH]3)n3cc(C(N)C(C)CC)nn3)CC2)n1` (centres undefined), the EC50 was > 30 µM (inactive).
`C#CCOCCOCCOCCNc1nc(N2CCN(C(=O)[C@H](Cc3ccc(O)cc3)n3cc([C@@H](N)C(C)CC)nn3)CC2)nc(N2CCN(C(=O)[C@H](Cc3cc4ccccc4[nH]3)n3cc([C@@H](N)Cc4ccc(O)cc4)nn3)CC2)n1` (some centres undefined): the EC50 is > 30 µM (inactive).
On the same count and under the same terms, with `COCCNC(=O)CN(c1cc(Cl)ccc1OC)S(=O)(=O)c1ccc(C)c([N+](=O)[O-])c1` the figure was > 30 µM (inactive); with `CCOC(=O)c1c(CSC(=N)N)n(-c2ccc(C)cc2)c2cc(Br)c(OC(C)=O)cc12`, > 30 µM (inactive).
Take `COc1ccc(N2CC(C(=O)Nc3nnc(SCc4ccccn4)s3)CC2=O)cc1` (centres undefined): the EC50 was > 30 µM (inactive).
Consider `CCCCCCOc1ccc(/C(C)=N/NC2=NCCN2)cc1[N+](=O)[O-]`, for which the EC50 is > 30 µM (inactive).
For `OCCCCNCc1ccc(OCc2ccc(Cl)cc2Cl)cc1`, the EC50 was > 30 µM (inactive).
On the same count and under the same terms, with `CCN(CC)CCOC(=O)c1ccc(N/C=C(/C#N)c2nc(-c3ccc4c(c3)OCO4)cs2)cc1` the figure was > 30 µM (inactive).
Turning to `Brc1ccc(N=C/C=C/C=C/Nc2ccc(Br)cc2)cc1`, the half-maximal effective concentration (EC50) is 10.6 µM and the Ki stood at 9.04 µM.
With `CCCCCCCCCCOC(=O)Cn1c(COc2ccccc2C)[n+](C)c2ccccc21`, the EC50 was > 30 µM (inactive).
In the case of `CCCCCCCCCCOC(=O)Cn1c(COc2ccccc2OC)[n+](C)c2ccccc21`, the EC50 was > 30 µM (inactive).
On to `COc1ccc(Cn2c(SCc3ccc(C)cc3)nc3cc(OC)c(OC)cc3c2=N)cc1Cl`, for which the EC50 is > 30 µM (inactive).
`C#CCOCCOCCOCCNc1nc(N2CCN(C(=O)C(Cc3ccc(O)cc3)n3cc(C(N)CC(C)C)nn3)CC2)nc(N2CCN(C(=O)C(Cc3cc4ccccc4[nH]3)n3cc(C(N)Cc4ccc(O)cc4)nn3)CC2)n1` (centres undefined): the EC50 was > 30 µM (inactive).
On the same count and under the same terms, with `CCN(CC)CCOC(=O)c1ccc(N/C=C(/C#N)c2nc(-c3cccc(OC)c3)cs2)cc1` the figure was > 30 µM (inactive).
For the compound `CC(=O)c1c(C)[nH]c(C(=O)NC2=NCCS2)c1C`, the EC50 was > 30 µM (inactive).
On to `CCOC(=O)N1CCN(c2c(N3CCN(c4ccccc4F)CC3)c(=O)c2=O)CC1`, for which the EC50 is > 30 µM (inactive).
The same measure, in the same setting: with `COc1ccc(CNC[C@@H](CCCCN(C)Cc2ccc(OC)cc2)N2C[C@H](c3ccccc3)N(CCc3ccc(Cl)c(Cl)c3)C(=O)C2=O)cc1` the figure was > 30 µM (inactive); with `C#CCOCCOCCOCCNc1nc(N2CCN(C(=O)[C@H](Cc3ccc(O)cc3)n3cc([C@@H](N)CC(C)C)nn3)CC2)nc(N2CCN(C(=O)[C@H](Cc3cc4ccccc4[nH]3)n3cc([C@@H](N)CC(C)C)nn3)CC2)n1`, > 30 µM (inactive).
Turning to `CCCN(CCC)CCNC(=O)c1cc2c(-c3ccc(Cl)cc3)nn(C)c2s1`, the EC50 is > 30 µM (inactive).
`CN1CCN(CC(=O)N2CCn3c4c(c5cc(C6CCCCC6)ccc53)CCCC42)CC1` (centres undefined): the EC50 was > 30 µM (inactive).
Take `CC(=O)Nc1cccc2c1C(=O)N(c1cccc(C)c1)C2=O`: the EC50 is > 30 µM (inactive).
For the compound `C#CCOCCOCCOCCNc1nc(N2CCN(C(=O)[C@H]([C@@H](C)CC)n3cc([C@@H](N)CC(C)C)nn3)CC2)nc(N2CCN(C(=O)[C@H](Cc3cc4ccccc4[nH]3)n3cc([C@@H](N)Cc4ccc(O)cc4)nn3)CC2)n1`, the EC50 is > 30 µM (inactive).
Turning to `COc1ccc(NC(=O)N(Cc2cc3cc(C)ccc3[nH]c2=O)CC2CCCO2)cc1` (centres undefined), the EC50 is > 30 µM (inactive).
